pKi: −log10 of the molar value. Like-named read-outs stand apart in the source and are kept apart here.

For four compounds, Ki results are on record in US4665022A (priority 1984, dated 1987).

Experiment [1] addresses nACh receptors in the cerebral cortex (Rattus norvegicus, UniProt Q05941). The experiment in a line: biochemical. The format is binding.
Experiment [2] has as its target nicotinic binding sites. Details: species or system rat.

Chain of nACh receptors in the cerebral cortex (Q05941 23-502): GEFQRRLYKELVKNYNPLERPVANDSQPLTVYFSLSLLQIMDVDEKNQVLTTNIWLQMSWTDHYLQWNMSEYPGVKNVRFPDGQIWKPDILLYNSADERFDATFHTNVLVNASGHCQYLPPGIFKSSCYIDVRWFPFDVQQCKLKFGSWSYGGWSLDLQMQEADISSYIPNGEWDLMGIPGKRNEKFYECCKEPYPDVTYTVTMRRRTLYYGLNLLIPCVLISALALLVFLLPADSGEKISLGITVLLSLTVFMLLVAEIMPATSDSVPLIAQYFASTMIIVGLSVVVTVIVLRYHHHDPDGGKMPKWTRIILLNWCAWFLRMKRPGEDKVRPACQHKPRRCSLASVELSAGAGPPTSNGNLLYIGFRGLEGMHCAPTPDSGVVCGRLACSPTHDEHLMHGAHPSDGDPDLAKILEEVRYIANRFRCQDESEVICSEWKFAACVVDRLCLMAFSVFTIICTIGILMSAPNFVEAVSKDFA

On to `C[N+](C)(C)CCOC(N)=O` [carbamyl choline], for which the negative logarithm of the Ki (pKi) in experiment [1] (read-out: KI) was 6.70.

Turning to `COc1cc2c3cc1Oc1cc(ccc1O)C[C@@H]1c4c(cc(OC)c(O)c4Oc4ccc(cc4)C[C@@H]3N(C)CC2)CC[N+]1(C)C` [d-tubocurarine], in experiment [1] (read-out: KI), the pKi was 7.22.

In experiment [1], `CN1[C@@H]2C[C@@H](OC(=O)[C@H](CO)c3ccccc3)C[C@H]1[C@@H]1O[C@@H]12` [scopolamine] had a pKi of less than 2.00.

As for alpha-bungarotoxin, the figures for the negative-log Ki (pKi) in experiment [2] and in experiment [1] (read-out: KI) were 9.89 and 9.92, respectively.

The term pKi denotes the negative decadic logarithm of the Ki, by convention in mol/L.
